Results published in ChEMBL document CHEMBL4811278, “Discovery of novel modulators for the PPARα (peroxisome proliferator activated receptor α): Potential therapies for nonalcoholic fatty liver disease” (Bioorg Med Chem, 2021).
pEC50: −log10 of the molar value. The source made the active and inactive calls. The calls are words filed in the database; no cut-off is given here.

How the values were obtained:
[1] = biological target: T1, Peroxisome proliferator-activated receptor gamma (Homo sapiens, UniProt P37231); test: Agonist activity at Gal4-fused human PPARgamma expressed in monkey CV1 cells assessed as receptor transactivation incubated for 45 hrs by luciferase reporter gene assay; assay type: cell-based, CV-1
T1 sequence (P37231 whole entry): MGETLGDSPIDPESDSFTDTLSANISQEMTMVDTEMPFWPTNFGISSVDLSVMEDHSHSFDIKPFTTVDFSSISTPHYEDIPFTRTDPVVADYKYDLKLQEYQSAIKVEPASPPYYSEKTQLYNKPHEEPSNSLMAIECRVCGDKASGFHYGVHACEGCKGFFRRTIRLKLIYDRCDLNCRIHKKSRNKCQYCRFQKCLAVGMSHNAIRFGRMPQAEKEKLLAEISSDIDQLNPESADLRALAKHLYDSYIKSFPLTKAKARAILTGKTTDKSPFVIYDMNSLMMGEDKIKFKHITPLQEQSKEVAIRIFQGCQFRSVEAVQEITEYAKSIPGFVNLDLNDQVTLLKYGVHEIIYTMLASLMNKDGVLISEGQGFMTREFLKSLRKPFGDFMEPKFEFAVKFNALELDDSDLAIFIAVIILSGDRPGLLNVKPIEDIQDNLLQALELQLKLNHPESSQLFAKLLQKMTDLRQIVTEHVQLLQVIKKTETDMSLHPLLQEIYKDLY

[2] = biological target: T2, Peroxisome proliferator-activated receptor delta (Homo sapiens, UniProt Q03181); test: Agonist activity at Gal4-fused human PPARdelta expressed in monkey CV1 cells assessed as receptor transactivation incubated for 45 hrs by luciferase reporter gene assay; assay type: cell-based, CV-1
T2 sequence (Q03181 whole entry): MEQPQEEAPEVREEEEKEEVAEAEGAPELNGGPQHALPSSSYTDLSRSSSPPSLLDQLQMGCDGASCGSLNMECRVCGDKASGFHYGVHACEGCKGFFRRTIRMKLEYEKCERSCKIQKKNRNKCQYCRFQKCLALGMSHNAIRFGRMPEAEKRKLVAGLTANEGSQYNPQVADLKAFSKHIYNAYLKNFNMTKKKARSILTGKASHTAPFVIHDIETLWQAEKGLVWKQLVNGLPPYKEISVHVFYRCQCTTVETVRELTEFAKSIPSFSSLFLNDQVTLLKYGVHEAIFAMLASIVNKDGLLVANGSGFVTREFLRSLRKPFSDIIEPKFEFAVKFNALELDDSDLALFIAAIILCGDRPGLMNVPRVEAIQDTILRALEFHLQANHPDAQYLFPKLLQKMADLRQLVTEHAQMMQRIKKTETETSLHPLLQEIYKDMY

[3] = system: Mus musculus; test: Hypolipidemic activity in high fat diet-induced nonalcoholic steatohepatitis C57BL/6J mouse model assessed as reduction in plasma triglyceride level at 3 mg/kg, po administered via gavage and measured after 24 hrs; assay type: functional
[4] = system: Mus musculus; test: Hypolipidemic activity in high fat diet-induced nonalcoholic steatohepatitis C57BL/6J mouse model assessed as reduction in plasma free fatty acid level at 3 mg/kg, po administered once daily via gavage for 7 days; assay type: functional; settings: 168 h, time 7 day
[5] = biological target: T3, Peroxisome proliferator-activated receptor alpha (Mus musculus) (UniProt P23204); test: In vivo agonist activity at PPARalpha in high fat diet-induced nonalcoholic steatohepatitis C57BL/6J mouse model assessed as increase in Cyp4a3 mRNA expression in liver administered at 3 mg/kg, po administered once daily for 7 days by quantitative real time PCR analysis; assay type: functional, organism-based; settings: time 7.0 day
T3 sequence (whole entry): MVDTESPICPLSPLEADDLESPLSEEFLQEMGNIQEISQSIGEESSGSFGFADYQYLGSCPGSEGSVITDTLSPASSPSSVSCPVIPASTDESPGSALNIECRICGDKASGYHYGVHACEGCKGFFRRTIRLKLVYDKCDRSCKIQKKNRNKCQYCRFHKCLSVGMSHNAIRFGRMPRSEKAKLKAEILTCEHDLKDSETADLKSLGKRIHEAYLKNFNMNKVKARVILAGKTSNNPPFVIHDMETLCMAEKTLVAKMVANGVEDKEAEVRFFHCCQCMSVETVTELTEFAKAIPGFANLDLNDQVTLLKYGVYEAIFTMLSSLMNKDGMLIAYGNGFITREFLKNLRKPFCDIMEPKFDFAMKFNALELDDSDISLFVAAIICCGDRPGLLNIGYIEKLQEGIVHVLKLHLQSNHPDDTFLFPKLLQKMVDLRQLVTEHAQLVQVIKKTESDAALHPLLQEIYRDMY

[6] = biological target: T3, Peroxisome proliferator-activated receptor alpha (Mus musculus); test: In vivo agonist activity at PPARalpha in high fat diet-induced nonalcoholic steatohepatitis C57BL/6J mouse model assessed as increase in mCPT1A gene expression in liver at 3 mg/kg, po administered once daily for 7 days and measured at >3 days by quantitative real time PCR analysis; assay type: functional, organism-based; settings: time day >3
[7] = system: Mus musculus; test: Hypolipidemic activity in high fat diet-induced nonalcoholic steatohepatitis C57BL/6J mouse model assessed as reduction in hepatocellular vacuolation at 3 mg/kg, po administered once daily for 1 week by Oil Red O staining based assay; assay type: functional, organism-based; settings: time 1.0 weeks
[8] = system: Mus musculus; test: Hypolipidemic activity in high fat diet-induced nonalcoholic steatohepatitis C57BL/6J mouse model assessed as reduction in fat droplets in liver at 3 mg/kg, po administered once daily for 1 week by Oil Red O staining based assay; assay type: functional, organism-based; settings: time 1.0 weeks
[9] = system: Mus musculus; test: Upregulation of PPARalpha expression in liver of high fat diet-induced nonalcoholic steatohepatitis C57BL/6J mouse model at 3 mg/kg, po and measured after 24 hrs by quantitative real time PCR analysis; assay type: functional, organism-based

pEC50 [1]: < 5.00
pEC50 [2]: < 5.00
Activity [5]: Active
Activity [6]: Active
Compound: COc1ccc(Cn2c(CCCc3ccc(OC(C)(C)C(=O)O)cc3)nn(Cc3ccc(C)cc3)c2=O)cc1
inhibition in vivo at 3 mg/kg [3]: ≥ 50%
inhibition in vivo at 3 mg/kg [4]: ≥ 60%
Activity [7]: Active
Activity [8]: Active
Activity [9]: Active
